Assays:
HDAC3 = target: T1, HDAC3 (Homo sapiens, UniProt O15379); assay: GDF11 reporter assay in HeLa cells; format: cell-based; conditions: relative to CS055 at 3 μM
T1 construct: endogenous in cells; host or cells: HeLa
Description: (§1) HDAC subtype selectivity inhibition assay of tested compounds was carried out by several reporter gene assays experiments. Briefly, HeLa cells were seeded in 96-well plates the day before transfection to give a confluence of 50-80%. Cells were transfected with one of reporter gene plasmid containing a promoter sequence or response element upstream of a luciferase gene construct using FuGene6 transfection reagent according to the manufacturer's instruction (Roche). The promoters or response elements including p21-promoter, gdf11-promoter, MEF-binding element (MEF2), Nur77-promoter were fused upstream to the luciferase gene reporter construct. For normalizing the transfection efficiency, a GFP expression plasmid was cotransfected. Cells were allowed to express protein for 24 hours followed by addition of individual compounds or the vehicle (DMSO). 24 hours later the cells were harvested, and the luciferase assay and GFP assay were performed using corresponding assay kits according to the manufacturer's instructions (Promega).

HDAC7 = target: T2, HDAC7 (Homo sapiens, UniProt Q8WUI4); assay: Nur77 reporter assay in HeLa cells; format: cell-based; conditions: relative to CS055 at 3 μM
T2 construct: endogenous in cells; host or cells: HeLa
T2 sequence (Q8WUI4 1-952): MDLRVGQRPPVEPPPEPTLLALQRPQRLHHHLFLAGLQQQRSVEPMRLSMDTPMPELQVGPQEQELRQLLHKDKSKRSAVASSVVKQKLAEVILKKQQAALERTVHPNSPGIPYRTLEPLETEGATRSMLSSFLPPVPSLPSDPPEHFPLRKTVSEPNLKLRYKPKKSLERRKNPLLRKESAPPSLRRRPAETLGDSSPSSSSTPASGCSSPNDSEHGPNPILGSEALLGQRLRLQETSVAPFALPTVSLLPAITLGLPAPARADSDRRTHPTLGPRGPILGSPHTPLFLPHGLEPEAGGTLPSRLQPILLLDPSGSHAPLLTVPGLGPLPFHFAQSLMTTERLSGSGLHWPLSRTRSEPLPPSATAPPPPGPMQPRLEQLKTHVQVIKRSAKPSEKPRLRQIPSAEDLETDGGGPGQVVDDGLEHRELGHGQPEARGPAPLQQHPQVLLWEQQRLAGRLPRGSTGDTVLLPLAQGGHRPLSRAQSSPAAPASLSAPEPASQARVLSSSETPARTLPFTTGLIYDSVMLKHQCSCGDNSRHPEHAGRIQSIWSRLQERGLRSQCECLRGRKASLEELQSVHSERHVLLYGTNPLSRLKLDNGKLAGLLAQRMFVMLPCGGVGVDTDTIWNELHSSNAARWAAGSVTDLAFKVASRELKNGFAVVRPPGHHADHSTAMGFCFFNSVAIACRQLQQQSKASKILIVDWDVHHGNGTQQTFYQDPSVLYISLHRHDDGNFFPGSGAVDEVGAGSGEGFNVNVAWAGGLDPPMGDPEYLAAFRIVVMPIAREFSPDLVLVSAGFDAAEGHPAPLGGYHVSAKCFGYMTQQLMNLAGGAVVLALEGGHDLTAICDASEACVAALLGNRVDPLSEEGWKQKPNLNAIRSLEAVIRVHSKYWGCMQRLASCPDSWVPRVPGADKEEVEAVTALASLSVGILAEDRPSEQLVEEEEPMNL
Description: as §1

HDAC4/5 = assay: MEF2 reporter assay in HeLa cells; format: cell-based, human; conditions: relative to CS055 at 3 μM
Description: as §1

Class I HDAC = assay: P21 reporter assay in HeLa cells; format: cell-based, human; conditions: relative to CS055 at 3 μM
Description: as §1

Raji = assay: Tumor cell proliferation (MTS), Raji; format: cell-based; conditions: Homo sapiens, 72 hours
Description: (§2) Measurement of in vivo cell proliferation:
(§3) Tumor cells were trypsinized and plated into 96-well plates at 3,000 per well and incubated in complete medium with 10% FBS for 24 hours. Compounds were added over a final concentration range of 100 μmol/L to 100 nmol/L in 0.1% DMSO and incubated for 72 hours in complete medium. The effects on proliferation were determined by addition of MTS reagent (Promega) according to the instruction, incubation for 2 hours at 37° C. in CO2 incubator, and record the absorbance at 490 nm using an ELISA plate reader.

A549 = assay: Tumor cell proliferation (MTS), A549; format: cell-based; conditions: Homo sapiens, A549, 72 hours
Description: as §2, §3

Bel-7402 = assay: Tumor cell proliferation (MTS), Bel-7402; format: cell-based; conditions: Homo sapiens, Bel-7402, 72 hours
Description: as §2, §3

HCT-8 = assay: Tumor cell proliferation (MTS), HCT-8; format: cell-based; conditions: Homo sapiens, HCT-8, 72 hours
Description: as §2, §3

MCF7 = assay: Tumor cell proliferation (MTS), MCF7; format: cell-based; conditions: Homo sapiens, MCF7, 72 hours
Description: as §2, §3

MDA-MB-231 = assay: Tumor cell proliferation (MTS), MDA-MB-231; format: cell-based; conditions: Homo sapiens, MDA-MB-231, 72 hours
Description: as §2, §3

Hut-78 = assay: Tumor cell proliferation (MTS), Hut-78; format: cell-based; conditions: Homo sapiens, HuT78, Hut-78, 72 hours
Description: as §2, §3

HL60 = assay: Tumor cell proliferation (MTS), HL60; format: cell-based; conditions: Homo sapiens, HL-60, HL60, 72 hours
Description: as §2, §3

Ramos = assay: Tumor cell proliferation (MTS), Ramos; format: cell-based; conditions: Homo sapiens, 72 hours
Description: as §2, §3

U937 = assay: Tumor cell proliferation (MTS), U937; format: cell-based; conditions: Homo sapiens, U-937, U937, 72 hours
Description: as §2, §3

Jurkat = assay: Tumor cell proliferation (MTS), Jurkat; format: cell-based; conditions: Homo sapiens, 72 hours
Description: as §2, §3

HeLa = assay: Tumor cell proliferation (MTS), HeLa; format: cell-based; conditions: Homo sapiens, 72 hours
Description: as §2, §3

T1 sequence (O15379 whole entry): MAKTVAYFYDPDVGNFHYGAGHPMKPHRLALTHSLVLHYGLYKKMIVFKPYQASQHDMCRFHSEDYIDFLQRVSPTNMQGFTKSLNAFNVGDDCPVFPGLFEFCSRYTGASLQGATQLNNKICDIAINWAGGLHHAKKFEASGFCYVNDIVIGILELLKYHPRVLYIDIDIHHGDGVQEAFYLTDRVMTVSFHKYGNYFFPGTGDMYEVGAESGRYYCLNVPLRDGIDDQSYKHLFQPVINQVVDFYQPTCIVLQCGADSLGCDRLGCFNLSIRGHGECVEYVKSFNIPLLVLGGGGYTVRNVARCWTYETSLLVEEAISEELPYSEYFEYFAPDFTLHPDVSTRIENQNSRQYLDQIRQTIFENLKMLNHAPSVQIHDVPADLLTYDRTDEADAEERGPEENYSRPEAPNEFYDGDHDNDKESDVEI
T1 sequence (Q9Y618 whole entry partner): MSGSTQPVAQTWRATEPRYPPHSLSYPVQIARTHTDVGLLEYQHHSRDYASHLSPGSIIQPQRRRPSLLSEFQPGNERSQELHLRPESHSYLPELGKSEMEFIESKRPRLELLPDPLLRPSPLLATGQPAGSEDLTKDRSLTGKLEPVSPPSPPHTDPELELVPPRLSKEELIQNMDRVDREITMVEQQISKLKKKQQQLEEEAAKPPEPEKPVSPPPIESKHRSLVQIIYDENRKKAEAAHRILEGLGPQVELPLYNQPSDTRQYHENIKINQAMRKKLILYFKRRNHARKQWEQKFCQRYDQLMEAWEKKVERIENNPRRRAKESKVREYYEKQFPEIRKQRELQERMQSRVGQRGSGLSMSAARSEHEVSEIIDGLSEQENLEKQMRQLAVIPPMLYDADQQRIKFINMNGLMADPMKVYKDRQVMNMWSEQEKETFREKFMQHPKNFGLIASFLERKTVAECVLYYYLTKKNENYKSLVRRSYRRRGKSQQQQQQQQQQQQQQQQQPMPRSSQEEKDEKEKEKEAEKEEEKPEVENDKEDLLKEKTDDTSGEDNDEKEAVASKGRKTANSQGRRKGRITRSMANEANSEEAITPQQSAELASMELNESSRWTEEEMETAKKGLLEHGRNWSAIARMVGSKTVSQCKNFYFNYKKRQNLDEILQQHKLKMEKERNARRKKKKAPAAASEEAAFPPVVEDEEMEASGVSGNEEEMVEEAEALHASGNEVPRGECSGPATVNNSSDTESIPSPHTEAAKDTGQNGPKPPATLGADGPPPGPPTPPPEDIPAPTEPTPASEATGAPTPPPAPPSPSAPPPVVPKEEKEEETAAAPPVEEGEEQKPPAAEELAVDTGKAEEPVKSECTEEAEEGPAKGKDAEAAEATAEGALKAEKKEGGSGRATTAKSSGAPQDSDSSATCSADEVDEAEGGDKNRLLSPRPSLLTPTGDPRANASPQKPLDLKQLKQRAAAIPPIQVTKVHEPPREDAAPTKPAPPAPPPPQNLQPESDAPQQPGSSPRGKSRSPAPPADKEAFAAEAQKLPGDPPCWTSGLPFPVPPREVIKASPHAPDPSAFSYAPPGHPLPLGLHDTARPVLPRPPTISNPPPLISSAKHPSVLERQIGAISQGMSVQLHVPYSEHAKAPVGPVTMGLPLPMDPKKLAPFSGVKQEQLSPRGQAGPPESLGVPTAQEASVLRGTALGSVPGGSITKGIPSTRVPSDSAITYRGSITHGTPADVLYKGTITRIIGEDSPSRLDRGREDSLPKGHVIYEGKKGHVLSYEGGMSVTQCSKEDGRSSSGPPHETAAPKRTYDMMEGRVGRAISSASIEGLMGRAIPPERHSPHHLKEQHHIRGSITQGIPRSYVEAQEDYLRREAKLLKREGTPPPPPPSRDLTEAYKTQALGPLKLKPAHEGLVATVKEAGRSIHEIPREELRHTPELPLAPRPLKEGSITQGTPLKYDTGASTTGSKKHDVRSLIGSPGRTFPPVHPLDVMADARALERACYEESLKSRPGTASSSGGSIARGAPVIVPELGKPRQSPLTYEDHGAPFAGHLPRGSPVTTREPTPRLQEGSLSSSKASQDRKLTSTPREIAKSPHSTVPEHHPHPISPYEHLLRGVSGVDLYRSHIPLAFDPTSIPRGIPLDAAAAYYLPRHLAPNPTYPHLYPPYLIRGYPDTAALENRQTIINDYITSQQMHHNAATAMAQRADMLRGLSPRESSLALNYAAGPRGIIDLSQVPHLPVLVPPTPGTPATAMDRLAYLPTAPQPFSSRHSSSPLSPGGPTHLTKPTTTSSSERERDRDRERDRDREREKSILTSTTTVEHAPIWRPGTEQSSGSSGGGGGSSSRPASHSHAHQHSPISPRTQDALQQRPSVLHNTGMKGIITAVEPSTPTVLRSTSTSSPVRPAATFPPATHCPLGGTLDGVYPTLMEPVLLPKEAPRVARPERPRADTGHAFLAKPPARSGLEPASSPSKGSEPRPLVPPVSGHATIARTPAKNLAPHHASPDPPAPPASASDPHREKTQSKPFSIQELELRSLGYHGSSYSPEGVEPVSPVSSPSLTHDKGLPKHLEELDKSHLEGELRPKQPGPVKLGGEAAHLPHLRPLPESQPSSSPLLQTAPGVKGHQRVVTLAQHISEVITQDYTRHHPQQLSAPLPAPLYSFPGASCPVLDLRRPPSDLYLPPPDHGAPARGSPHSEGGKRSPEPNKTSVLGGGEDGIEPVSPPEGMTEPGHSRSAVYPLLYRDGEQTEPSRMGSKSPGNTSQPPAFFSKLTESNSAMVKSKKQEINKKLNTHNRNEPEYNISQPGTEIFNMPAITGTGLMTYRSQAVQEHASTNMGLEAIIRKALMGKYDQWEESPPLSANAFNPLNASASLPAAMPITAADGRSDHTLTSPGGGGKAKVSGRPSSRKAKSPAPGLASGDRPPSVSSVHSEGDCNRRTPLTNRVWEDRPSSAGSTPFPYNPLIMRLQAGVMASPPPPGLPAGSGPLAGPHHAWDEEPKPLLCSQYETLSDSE

In the case of `O=C(CCCCCCC(=O)Nc1ccccc1)NO` [SAHA, suberoylanilide hydroxamic acid, reference compound], the “HDAC3 (GDF11 reporter assay) % Max Resp of CS055 at 3 μM” value (HDAC3) is reported as 317.9%, the “HDAC7 (Nur77 reporter assay) % Max Resp of CS055 at 3 μM” value (HDAC7) is reported as 514.9% and the “HDAC4/5 (MEF2 reporter assay) % Max Resp of CS055 at 3 μM” value (HDAC4/5) is reported as 427.3%. The “Class I HDAC (P21 reporter assay) % Max Resp of CS055 at 3 μM” value (Class I HDAC) was 304.1%.
In the case of `CNC(=O)c1cc(Oc2ccc(NC(=O)Nc3ccc(Cl)c(C(F)(F)F)c3)cc2)ccn1` [Sorafinib, reference compound], the GI50 (Raji) is reported as 4.15 µM, the GI50 (A549) is reported as 13.8 µM and the GI50 (Bel-7402) is reported as 9.73 µM. The GI50 (HCT-8) was 5.35 µM, the GI50 (MCF7) was 9.51 µM and the GI50 (MDA-MB-231) was 4.25 µM. For the same molecule, the GI50 (Hut-78) was 12.5 µM, the GI50 (HL60) was 1.28 µM and the GI50 (Ramos) was 1.51 µM. The GI50 (U937) was 4.06 µM, the GI50 (Jurkat) was 16.9 µM and the GI50 (HeLa) was 30.8 µM.
`CCN(CC)CCNC(=O)c1c(C)[nH]c(/C=C2\C(=O)Nc3ccc(F)cc32)c1C` [Sutent, reference compound] showed a GI50 (Raji) of 5.47 µM, a GI50 (A549) of 14.7 µM and a GI50 (Bel-7402) of 13.1 µM. The GI50 (HCT-8) was 12.2 µM, the GI50 (MCF7) was 7.55 µM and the GI50 (MDA-MB-231) was 4.66 µM. The GI50 (Hut-78) was 4.06 µM, the GI50 (HL60) was 1.73 µM and the GI50 (Ramos) was 12 µM. The GI50 (U937) was 8.28 µM, the GI50 (Jurkat) was 7.05 µM and the GI50 (HeLa) was 9.29 µM.
